The subject of series [1] is MRSA strains from cystic fibrosis patients. The series can be described thus: CLSI microdilution MICs against 40 MRSA strains. The class given is cell-based, Staphylococcus aureus. More on the design: MICs (range): unit not given beside the values. How it is done: Strains. Two strains each of mucoid Pseudomonas aeruginosa (both pyocyanin positive) and 40 MRSA (only one strain with gold colonies), isolated within the past 12 months and beyond from patients at in cystic fibrosis clinic, were tested. Additionally, two B. cepacia strains were acquired from Hershey Medical Center. All strains were identified by standard methods. Only one strain per patient was tested. MLVA was done on all strains, to examine clonality and to ensure that testing was not being limited to only one or a few clones. Strains were stored in skim milk at −70° C. until use.
(§1) Susceptibility testing. Original MICs of each strain to CEM-102 and other comparators was tested by CLSI microdilution methodology. Trays were obtained from Trek, Inc., Cleveland, Ohio. Time-kill macrobroth MIC dilution by CLSI was performed for all synergy testing.
MICs were assayed by standard methodology.
On the technique in general: Dilution methods test growth across graded concentrations, often in twofold steps.

Series [2] has as its system P. aeruginosa strains from cystic fibrosis patients. The series can be described thus: Macrobroth dilution MICs against two P. aeruginosa strains. The class given is cell-based, Pseudomonas aeruginosa.
In series [3] the test system is MRSA strains SA 2230, SA 2232. Nature of the series: Time-kill macrobroth MICs, MRSA strains SA 2230 and SA 2232. The format is cell-based, Staphylococcus aureus. How it is done:
as §1
(§2) Synergy testing. Two of the MRSA strains were chosen and tested for synergy, together with the four Gram-negative strains mentioned above. Broth macrodilution formed the basis of MICs used in time-kill experiments, as detailed below. The kill kinetics of each drug was tested alone by incubating an initial inoculum of 5×10^5 to 5×10^6 cfu/ml with drug concentrations at the MIC, three dilutions above and three dilutions below the MIC (1/2, 1/4 and 1/8×MIC). Viability counts were performed after 0, 3, 6, 12 and 24 h incubation at 37° C. in a shaking water bath by plating onto trypticase soy-5% sheep blood agar plates.

The conditions of series [4]: blood; cited from earlier work.
Series [5] concerns P. aeruginosa strains PSAR 461, PSAR 468. The series can be described thus: Time-kill macrobroth MICs, P. aeruginosa strains PSAR 461 and PSAR 468. The class given is cell-based, Pseudomonas aeruginosa. Particulars: strain PSAR 468. How it is done: as §1, §2
Series [6] has as its system B. cepacia strains from cystic fibrosis patients. Nature of the series: Macrobroth dilution MICs against two B. cepacia strains. The class given is cell-based, Burkholderia cepacia.
The test system of series [7] is B. cepacia strains BCEP 953, BCEP 954. The series can be described thus: Time-kill macrobroth MICs, B. cepacia strains BCEP 953 and BCEP 954. The class given is cell-based, Burkholderia cepacia. Here is the method: as §1, §2
The mark [8] stands for this setting: Staphylococcus aureus, microdilution, 40 MRSA strains.

Consider `CN[C@H](CC(C)C)C(=O)N[C@H]1C(=O)N[C@@H](CC(N)=O)C(=O)N[C@H]2C(=O)N[C@H]3C(=O)N[C@H](C(=O)N[C@H](C(=O)O)c4cc(O)cc(O)c4-c4cc3ccc4O)[C@H](O)c3ccc(c(Cl)c3)Oc3cc2cc(c3O[C@@H]2O[C@H](CO)[C@@H](O)[C@H](O)[C@H]2O[C@H]2C[C@](C)(N)[C@H](O)[C@H](C)O2)Oc2ccc(cc2Cl)[C@H]1O` [Vancomycin], for which, in series [1] (microdilution, 40 MRSA strains), the “MIC Range” value is 0.5-1^ μg/ml.

Turning to `CC(=O)NC[C@H]1CN(c2ccc(N3CCOCC3)c(F)c2)C(=O)O1` [Linezolid], in series [1] (all MRSA strains tested), the “MICs (range)” value is on record as 1-4. Further, the “MIC Range” value in series [1] (microdilution, 40 MRSA strains) lay in the range of 1 to 4 µg/mL.

On to `NCC[C@H](O)C(=O)N[C@@H]1C[C@H](N)[C@@H](O[C@H]2O[C@H](CN)[C@@H](O)[C@H](O)[C@H]2O)[C@H](O)[C@H]1O[C@H]1O[C@H](CO)[C@@H](O)[C@H](N)[C@H]1O` [Amikacin], for which the “MIC Range” value in series [2] was in the range of 2 to 8 µg/mL.

`CCCCCCCCCC(=O)N[C@@H](Cc1c[nH]c2ccccc12)C(=O)N[C@H](CC(N)=O)C(=O)N[C@@H](CC(=O)O)C(=O)N[C@@H]1C(=O)NCC(=O)N[C@@H](CCCN)C(=O)N[C@@H](CC(=O)O)C(=O)N[C@H](C)C(=O)N[C@@H](CC(=O)O)C(=O)NCC(=O)N[C@H](CO)C(=O)N[C@@H]([C@H](C)CC(=O)O)C(=O)N[C@@H](CC(=O)c2ccccc2N)C(=O)O[C@@H]1C` [Daptomycin]: the “MIC Range” value in series [1] (microdilution, 40 MRSA strains) was 0.5-1^ μg/ml.

With `NC[C@H]1O[C@H](O[C@H]2[C@H](O)[C@@H](O[C@H]3O[C@H](CO)[C@@H](O)[C@H](N)[C@H]3O)[C@H](N)C[C@@H]2N)[C@H](N)C[C@@H]1O` [Tobramycin, reference compound], the “MIC (reason strain not tested in combination)” value in series [3] (strain MRSA 2232) was greater than 512 µg/mL. Moreover, in series [2], the “MIC Range” value was in the range of 0.25 to 1.0 µg/mL.

On to `CC(=O)O[C@H]1C[C@@]2(C)[C@@H](C[C@@H](O)[C@H]3[C@@]4(C)CC[C@@H](O)[C@@H](C)[C@@H]4CC[C@@]32C)/C1=C(\CCC=C(C)C)C(=O)O` [FA, Fusidic Acid], for which the protein binding in series [4] is given as 95-97%.

With `CN(C)c1cc(NC(=O)CNC(C)(C)C)c(O)c2c1C[C@H]1C[C@H]3[C@H](N(C)C)C(O)=C(C(N)=O)C(=O)[C@@]3(O)C(O)=C1C2=O` [Tigecycline], the “MIC Range” value in series [1] (microdilution, 40 MRSA strains) was in the range of 0.12 to 0.25 µg/mL.

The MIC50 is an inhibitory concentration at the 50% level, which refers to growth in some studies and to a panel of isolates in others. What is called MIC90 is the lowest concentration that inhibits either 90% of growth or 90% of the strains tested, depending on the study. As for `CC(=O)O[C@H]1C[C@@]2(C)[C@@H](C[C@@H](O)[C@H]3[C@@]4(C)CC[C@@H](O)[C@@H](C)[C@@H]4CC[C@@]32C)/C1=C(\CCC=C(C)C)C(=O)[O-].[Na+]` [CEM-102, Sodium fusidate], the “Time-kill macrobroth MIC” value in series [5] is 256 µg/mL; in series [7] (strain BCEP 953), 512 µg/mL; in series [7] (strain BCEP 954) it was 512 µg/mL; in series [3] (strain SA 2230), 0.5 µg/mL; in series [3] (strain SA 2232) it was 0.25 µg/mL. The “MIC Range” value in series [6] was greater than 64 µg/mL; in series [1] (microdilution, 40 MRSA strains), 0.12 to 0.5 µg/mL; in series [2], greater than 64 µg/mL. Also, in series [1] (setting [8]), the MIC50 came to 0.12 µg/mL. For the same compound, the MIC90 in series [1] (setting [8]) is 0.25 µg/mL. Moreover, in series [1] (all strains of MRSA tested), the Potency in words result is listed as “very potent”.

Take Teicoplanin: in series [1] (microdilution, 40 MRSA strains), the “MIC Range” value lay within 0.25 to 1 µg/mL.

Values taken from patent US20130164351A1 (priority 2010, published 2013).
